Laboratory results taken from patent USRE43000E1, “Artificial riboswitch for controlling pre-mRNA splicing” (City of Hope, priority 2005, dated 2011).
“Also recorded” adds a separate entry of the source.

Key:
AdMLTheo510Mut pre-mRNA = test: Spliceosome assembly assay with 5′ ss embedded substrate (AdMLTheo510Mut); assay type: biochemical; details: 2 mM theophylline
Description: (A), ^32P-labeled AdMLTheo510Mut was subjected to a spliceosome assembly assay in the absence or presence of 2 mM theophylline. Bands representing splicing complex H, A, and B/C are marked on the left.
(§1) Spliceosome assembly and separation of individual complexes were performed essentially as described earlier (Das and Reed, 1999). Briefly, pre-mRNA (˜5 ng) was incubated in HeLa nuclear extract in the absence or presence of theophylline (12.5 μl total volume) under the conditions that support in vitro splicing. After the incubation, 2.5 μl of 4 μg/μl heparin and 2.5 μl of 5× loading dye containing 1×TBE (89 mM Tris, 89 mM boric acid, 2.5 mM EDTA), 20% glycerol, 0.25% bromophenol blue, 0.25% xylene cyanol) was added and the 3 μl aliquots of each reaction mixture were loaded on a 2% horizontal low-melting agarose gels followed by the spliceosome complexes at 70 V for 3 h in Tris-glycine running buffer at room temperature (Konarska and Sharp, 1986). Gels were fixed in 10% acetic acid, 10% methanol for 30 min, and then dried under vacuum at 80° C.

[1] = test system: AdMLTheo54Mut, AdMLTheo57Mut, AdMLTheo510Mut, AdMLTheo513Mut pre-mRNAs; test: In vitro splicing of AdML pre-mRNAs with 5′ ss embedded in the theophylline aptamer; assay type: biochemical
Description: Similar experiments were run using pre-mRNA substrates wherein the 5′ ss rather than the 3′ ss was embedded within the theophylline binding aptamer. Plasmids encoding […] 5′ ss embedded AdML pre-mRNA derivatives (AdMLTheo54Mut, AdMLTheo57Mut, AdMLTheo510Mut, and AdMLTheo513Mut) were constructed using a standard PCR based approach (FIG. 32A). The length of the lower aptamer stem in these substrates varied from 4 to 13 nucleotides. To prevent the activation of a cryptic 5′ ss, the GU's (potential 5′ ss) upstream of the authentic 5′ ss were mutated to GC. […] The proximal to distal product ratio decreased in the presence of theophylline in the 10- and 13-nucleotide lower aptamer substrates (FIGS. 34A and B). Theophylline induced alternative splicing in a dose-dependent manner (FIGS. 35A and B).
Nuclear extracts were prepared from HeLa cells (obtained from National Cell Culture), essentially as described by Dignam et al., (Dignam et al., 1983). […] Splicing intermediates and products were analyzed by electrophoresis in 13% denaturing polyacrylamide gels. The fractionated RNAs were visualized by PhosphorImager (Molecular Dynamics) and RNA signals were quantified by ImageQuant version 4.2 software (Molecular Dynamics) or ImageJ version 1.36 software (Rasband, W. S., ImageJ, U.S. National Institutes of Health, Bethesda, Md., http://rsb.info.nih.gov/ij, 1997-2006).

AdML-Theo-29AG pre-mRNA = test: Spliceosome assembly assay with AdML-Theo-29AG pre-mRNA; assay type: biochemical
Description: To investigate the effect of theophylline on spliceosome assembly, ^32P-labeled AdML-Theo-29AG pre-mRNA was incubated under splicing conditions in the absence or presence of theophylline. Aliquots were removed at various time points, followed by the separation of complexes on native agarose gels according to the published protocol (Das and Reed, 1999).
as §1

AdML BPT15AG pre-mRNA [2] = test: In vitro splicing of AdML pre-mRNA with branchpoint sequence within the theophylline aptamer (AdML BPT15AG); assay type: biochemical
Description: Since the choice of alternative splice sites is generally made at early stages of spliceosome assembly, it was next examined whether a theophylline riboswitch could be engineered to control splicing prior to the first step. A series of pre-mRNA substrates were constructed in which the branchpoint sequence (BPS) was inserted within the theophylline aptamer. […] To determine whether theophylline-mediated inhibition was dose dependent and to identify the optimum concentration for controlling splicing, the splicing experiment was repeated using AdML BPT15AG in the presence of varying concentrations of theophylline.
Nuclear extracts were prepared from HeLa cells (obtained from National Cell Culture), essentially as described by Dignam et al., (Dignam et al., 1983). To ensure that theophylline binds to its RNA target, a solution (5 μl) consisting of ^32P-labeled pre-mRNA (5-10 fmol, ˜10,000 cpm per reaction), indicated concentration of theophylline, 0.5 μl BC300 (20 mM HEPES, pH 8.0, 20% glycerol, 300 mM KCl, 0.2 mM EDTA) and 0.25 μl 160 mM MgCl2 were heated to 65° C. for 5 minutes, followed by 20 minutes incubation at room temperature. Next, 0.5 mM ATP, 20 mM creatine phosphate, 0.4 units of RNasin (Promega), 1.0 mM DTT, 6.25 μl HeLa nuclear extract, and water up to 12.5 μl (all concentrations are final) was added and incubation continued at 30° C. for the indicated time. Where indicated, theophylline was substituted by caffeine or water. […] Splicing intermediates and products were analyzed by electrophoresis in 13% denaturing polyacrylamide gels. The fractionated RNAs were visualized by PhosphorImager (Molecular Dynamics) and RNA signals were quantified by ImageQuant version 4.2 software (Molecular Dynamics) or ImageJ version 1.36 software (Rasband, W. S., ImageJ, U.S. National Institutes of Health, Bethesda, Md., http://rsb.info.nih.gov/ij, 1997-2006).

[3] = test system: IgM pre-mRNA (ESE of exon M2); test: In vitro splicing of IgM pre-mRNA with bifunctional theophylline aptamer; assay type: biochemical, mouse
Description: To test this, we designed a bifunctional theophylline aptamer in which the non-conserved portion of the aptamer is complementary to the ESE present in the alternative exon M2 of the mouse IgM gene (FIG. 16). The IgM pre-mRNA is a well-characterized substrate and its ESE is essential for the splicing of the preceding intron between exon M1 and M2 (Tanaka et al., 1994; Watakabe et al., 1993). To prevent non-specific binding, ^32P-labeled IgM pre-mRNA and bifunctional aptamer were denatured for 1 minute at 90° C. followed by incubation for 10 min at 30° C. Next, the splicing mixture with or without theophylline was added, and reaction mixture incubated at 30° C. for 2 hours. After which the products of the splicing reaction were separated on a 13% denaturing polyacrylamide gel.

AdML BPT15AG pre-mRNA [4] = test: Spliceosome assembly assay with AdML BPT15AG pre-mRNA; assay type: biochemical; details: 2 mM theophylline
Description: Spliceosome assembly assays were performed in the presence or absence of 2 mM theophylline.
as §1

Structure (SMILES): Cn1c(=O)c2[nH]cnc2n(C)c1=O [theophylline]
- effect on spliceosome assembly, 5′ ss embedded substrate (AdMLTheo510Mut pre-mRNA): inhibit spliceosome assembly
- proximal to distal product ratio ([1]; 10- and 13-nucleotide lower aptamer substrates): decreased
- effect on splicing of 5′ ss embedded substrates ([1]; lower aptamer stem 4 to 13 nucleotides): inhibit splicing
- effect on spliceosomal complexes (AdML-Theo-29AG pre-mRNA): accumulation of complex C
- effect on AdML BPT15AG splicing reaction (AdML BPT15AG pre-mRNA [2]; 250 μM theophylline): could affect the splicing reaction; also recorded: can affect splicing reaction
- splicing inhibition of AdML BPT15AG (AdML BPT15AG pre-mRNA [2]; 0.5 mM theophylline): 50%
- yield of spliced product of AdML derivatives with BPS in upper aptamer stem (AdML BPT15AG pre-mRNA [2]; AdMLBPT12AG, AdMLBPT15AG, AdMLBPT18AG, theophylline added): significantly lowered the yield of the spliced product
- theophylline concentration required for reversal of splicing repression [3]: 1.0 mM
- effect of theophylline on splicing repressed by bifunctional aptamer ([3]; theophylline and bifunctional aptamer together): restoration of splicing
- effect on spliceosome assembly (AdML BPT15AG pre-mRNA [4]): blocking assembly of the spliceosome
